# Key:
# Test in all cases: relative viability (nuclei count vs DMSO), 5 days (fraction); higher = more cells survive
# NCI-H647 = system: NCI-H647
# Summary of the method: (§1)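 Relative viability divides the nuclei count in treated wells by that in vehicle wells. Lung cancer cell lines were seeded in 1536-well plates, dosed by pin tool the next day, and fixed and stained after 5 days in one step with final 0.05% Triton X-100, 1% formaldehyde and 1 ug/ml Hoechst. Dosing was a single drug or a fixed anchor-drug dose plus five library-drug doses (not always all listed) in √10 steps, and values are medians of duplicate plates imaged at 4×.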
# HCC-78 = system: HCC-78
# Summary of the method: as §1
# HCC-827 = system: HCC-827
# Summary of the method: as §1
# NCI-H1666 = system: NCI-H1666
# Summary of the method: as §1
# NCI-H650 = system: NCI-H650
# Summary of the method: as §1
# NCI-H2087 = system: NCI-H2087
# Summary of the method: as §1
# COR-L 105 = system: COR-L 105
# Summary of the method: as §1
# 201T = system: 201T
# Summary of the method: as §1
# NCI-H520 = system: NCI-H520
# Summary of the method: as §1
# NCI-H1915 = system: NCI-H1915
# Summary of the method: as §1
# RERF-LC-KJ = system: RERF-LC-KJ
# Summary of the method: as §1
# PC-14 = system: PC-14
# Summary of the method: as §1
# NCI-H23 = system: NCI-H23
# Summary of the method: as §1
# ChaGo-K-1 = system: ChaGo-K-1
# Summary of the method: as §1
# NCI-H2347 = system: NCI-H2347
# Summary of the method: as §1
# H3255 = system: H3255
# Summary of the method: as §1
# NCI-H2405 = system: NCI-H2405
# Summary of the method: as §1
# LCLC-97TM1 = system: LCLC-97TM1
# Summary of the method: as §1
# NCI-H661 = system: NCI-H661
# Summary of the method: as §1
# EPLC-272H = system: EPLC-272H
# Summary of the method: as §1
# NCI-H2126 = system: NCI-H2126
# Summary of the method: as §1
# LC-2-ad = system: LC-2-ad
# Summary of the method: as §1
compound,measurement,setting,value
O=c1cc(N2CCOCC2)oc2c(-c3cccc4c3sc3ccccc34)cccc12 + CS(=O)(=O)N1CCN(Cc2cc3nc(-c4cccc5[nH]ncc45)nc(N4CCOCC4)c3s2)CC1 [Pictilisib] (partner 1 µM),relative viability,NCI-H647; first compound 0.01 µM,0.437
same,relative viability,NCI-H647; first compound 0.3162 µM,0.578
same,relative viability,NCI-H647; first compound 1 µM,0.439
same,relative viability,HCC-78; first compound 0.01 µM,0.209
same,relative viability,HCC-78; first compound 0.03162 µM,0.204
same,relative viability,HCC-78; first compound 0.1 µM,0.178
same,relative viability,HCC-78; first compound 0.3162 µM,0.242
same,relative viability,HCC-78; first compound 1 µM,0.191
same,relative viability,HCC-827; first compound 0.01 µM,1.04
same,relative viability,HCC-827; first compound 0.03162 µM,0.809
same,relative viability,HCC-827; first compound 0.1 µM,1.05
same,relative viability,HCC-827; first compound 0.3162 µM,1.01
same,relative viability,HCC-827; first compound 1 µM,0.997
same,relative viability,NCI-H1666; first compound 0.01 µM,0.443
same,relative viability,NCI-H1666; first compound 0.03162 µM,0.483
same,relative viability,NCI-H1666; first compound 0.1 µM,0.504
same,relative viability,NCI-H1666; first compound 0.3162 µM,0.412
same,relative viability,NCI-H1666; first compound 1 µM,0.339
same,relative viability,NCI-H650; first compound 0.01 µM,0.907
same,relative viability,NCI-H650; first compound 0.03162 µM,1
same,relative viability,NCI-H650; first compound 0.3162 µM,0.896
same,relative viability,NCI-H650; first compound 1 µM,1.04
same,relative viability,NCI-H2087; first compound 0.01 µM,0.745
same,relative viability,NCI-H2087; first compound 0.03162 µM,0.861
same,relative viability,NCI-H2087; first compound 0.1 µM,0.851
same,relative viability,NCI-H2087; first compound 0.3162 µM,0.783
same,relative viability,NCI-H2087; first compound 1 µM,1
same,relative viability,COR-L 105; first compound 0.01 µM,0.347
same,relative viability,COR-L 105; first compound 0.03162 µM,0.394
same,relative viability,COR-L 105; first compound 0.1 µM,0.49
same,relative viability,COR-L 105; first compound 0.3162 µM,0.422
same,relative viability,COR-L 105; first compound 1 µM,0.439
same,relative viability,201T; first compound 0.01 µM,0.698
same,relative viability,201T; first compound 0.03162 µM,0.67
same,relative viability,201T; first compound 0.1 µM,0.692
same,relative viability,201T; first compound 0.3162 µM,0.705
same,relative viability,201T; first compound 1 µM,0.661
same,relative viability,NCI-H520; first compound 0.01 µM,0.304
same,relative viability,NCI-H520; first compound 0.03162 µM,0.321
same,relative viability,NCI-H520; first compound 0.1 µM,0.282
same,relative viability,NCI-H520; first compound 0.3162 µM,0.305
same,relative viability,NCI-H520; first compound 1 µM,0.312
same,relative viability,NCI-H1915; first compound 0.01 µM,0.953
same,relative viability,NCI-H1915; first compound 0.03162 µM,0.975
same,relative viability,NCI-H1915; first compound 0.1 µM,1.08
same,relative viability,NCI-H1915; first compound 0.3162 µM,0.99
same,relative viability,NCI-H1915; first compound 1 µM,0.909
same,relative viability,RERF-LC-KJ; first compound 0.01 µM,0.509
same,relative viability,RERF-LC-KJ; first compound 0.03162 µM,0.507
same,relative viability,RERF-LC-KJ; first compound 0.1 µM,0.595
same,relative viability,RERF-LC-KJ; first compound 0.3162 µM,0.664
same,relative viability,RERF-LC-KJ; first compound 1 µM,0.514
same,relative viability,PC-14; first compound 0.01 µM,0.555
same,relative viability,PC-14; first compound 0.03162 µM,0.612
same,relative viability,PC-14; first compound 0.1 µM,0.553
same,relative viability,PC-14; first compound 0.3162 µM,0.638
same,relative viability,PC-14; first compound 1 µM,0.589
same,relative viability,NCI-H23; first compound 0.01 µM,0.529
same,relative viability,NCI-H23; first compound 0.03162 µM,0.422
same,relative viability,NCI-H23; first compound 0.3162 µM,0.513
same,relative viability,NCI-H23; first compound 1 µM,0.442
same,relative viability,ChaGo-K-1; first compound 0.01 µM,0.648
same,relative viability,ChaGo-K-1; first compound 0.03162 µM,0.791
same,relative viability,ChaGo-K-1; first compound 0.1 µM,0.448
same,relative viability,ChaGo-K-1; first compound 0.3162 µM,0.901
same,relative viability,ChaGo-K-1; first compound 1 µM,0.663
same,relative viability,NCI-H2347; first compound 0.01 µM,0.671
same,relative viability,NCI-H2347; first compound 0.03162 µM,0.442
same,relative viability,NCI-H2347; first compound 0.1 µM,0.502
same,relative viability,NCI-H2347; first compound 0.3162 µM,0.802
same,relative viability,NCI-H2347; first compound 1 µM,0.468
same,relative viability,H3255; first compound 0.01 µM,0.5
same,relative viability,H3255; first compound 0.03162 µM,0.513
same,relative viability,H3255; first compound 0.1 µM,0.48
same,relative viability,H3255; first compound 0.3162 µM,0.45
same,relative viability,H3255; first compound 1 µM,0.416
same,relative viability,NCI-H2405; first compound 0.01 µM,0.397
same,relative viability,NCI-H2405; first compound 0.03162 µM,0.513
same,relative viability,NCI-H2405; first compound 0.1 µM,0.443
same,relative viability,NCI-H2405; first compound 0.3162 µM,0.533
same,relative viability,NCI-H2405; first compound 1 µM,0.443
same,relative viability,LCLC-97TM1; first compound 0.01 µM,0.177
same,relative viability,LCLC-97TM1; first compound 0.03162 µM,0.271
same,relative viability,LCLC-97TM1; first compound 0.3162 µM,0.233
same,relative viability,LCLC-97TM1; first compound 1 µM,0.145
same,relative viability,NCI-H661; first compound 0.01 µM,0.362
same,relative viability,NCI-H661; first compound 0.03162 µM,0.352
same,relative viability,NCI-H661; first compound 0.1 µM,0.376
same,relative viability,NCI-H661; first compound 0.3162 µM,0.409
same,relative viability,NCI-H661; first compound 1 µM,0.331
same,relative viability,EPLC-272H; first compound 0.01 µM,0.108
same,relative viability,EPLC-272H; first compound 0.03162 µM,0.242
same,relative viability,EPLC-272H; first compound 0.3162 µM,0.374
same,relative viability,EPLC-272H; first compound 1 µM,0.31
same,relative viability,NCI-H2126; first compound 0.01 µM,0.471
same,relative viability,NCI-H2126; first compound 0.03162 µM,0.449
same,relative viability,NCI-H2126; first compound 0.1 µM,0.529
same,relative viability,NCI-H2126; first compound 0.3162 µM,0.517
same,relative viability,NCI-H2126; first compound 1 µM,0.479
same,relative viability,LC-2-ad; first compound 0.01 µM,0.39
same,relative viability,LC-2-ad; first compound 0.1 µM,0.578
same,relative viability,LC-2-ad; first compound 0.3162 µM,0.456
same,relative viability,LC-2-ad; first compound 1 µM,0.526
